ChEMBL document CHEMBL1159276, “Sinugibberol, a new cytotoxic cembranoid diterpene from the soft coral Sinularia gibberosa” (1995)
Values after ≈ are worked out from the molar mass of the structure shown.

How the values were obtained:
P388 = test: Cytotoxicity against mouse P388 cells by MTT method; format: functional; settings: read-out: ED50 (the source's name)
HT-29 = test: Cytotoxicity against human HT-29 cells after 6 days by MTT method; format: functional; settings: HT-29, 144 h, read-out: ED50 (the source's name)

C/C1=C\CC[C@@]2(C)O[C@@H]2/C=C(/C(C)(C)O)CC[C@@]2(C)O[C@@H]2CC1 [SINUGIBBEROL]
EC50 (P388): 11.7 µg/mL (≈ 36.5 µM)
EC50 (HT-29): 0.5 µg/mL (≈ 1.56 µM)
